Results taken from patent US20250114486A1, “MARKED FATTY ACID DERIVATIVE, PRECURSOR COMPOUND THEREOF, AND USE THEREOF IN CONTRAST AGENT” (BEIJING NORMAL UNIVERSITY, priority 2022, published 2025).

Assay: In vivo biodistribution of radioactive ^99mTc complexes in female SD rats
Set-up: species or system female Sprague-Dawley (SD) rats
Conditions: for Biodistribution: Large Intestine / Biodistribution: Small Intestine / Biodistribution: Stomach: unit % ID
Description: Female SD rats (180-220 g, n=3) were fasted for 12 h before the experiment, and the purified radioactive 99mTc complexes 78-81 were prepared into physiological saline (containing 10% ethanol) solutions of about 250-350 μCi/mL. 200 μL of the above solution was injected into the tail vein of female SD rats, and the rats were killed by cervical dislocation at five time points, 15, 30, 60, 120 and 240 min after the tail vein injection. The blood, brain, heart, liver, spleen, lung, kidney, muscle, bone, large intestine, small intestine, stomach and tail were collected, weighed and counted, and the count distribution of each tissue and organ was calculated (unit: % ID/g, the unit of large intestine, small intestine and stomach is % ID), and the data are the mean±standard deviation of three mice in each phase. At the same time, 200 μL of the above solution was diluted to 20 mL, which was used as the % ID without deducting the tail count.

COC(C)(C)C[N+]#[C][99Tc-5]([C]#[N+]CC(C)(C)OC)([C]#[N+]CC(C)(C)OC)([C]#[N+]CC(C)(C)OC)([C]#[N+]CC(C)(C)OC)[C]#[N+]CC(C)(C)OCCCCSCCCCC(=O)O [^99mTc complex 79]
Biodistribution: Blood (15 min post-injection): 0.11 ± 0.02 ID %/g | Biodistribution: Bone (15 min post-injection): 0.13 ± 0.02 ID %/g | Biodistribution: Brain (15 min post-injection): 0.021 ± 0.005 ID %/g | Biodistribution: Heart (15 min post-injection): 1.50 ± 0.27 ID %/g | Biodistribution: Kidney (15 min post-injection): 4.87 ± 0.72 ID %/g | Biodistribution: Liver (15 min post-injection): 1.28 ± 0.19 ID %/g | Biodistribution: Lungs (15 min post-injection): 0.30 ± 0.06 ID %/g | Biodistribution: Muscle (15 min post-injection): 0.24 ± 0.06 ID %/g | Biodistribution: Spleen (15 min post-injection): 0.52 ± 0.10 ID %/g | Heart-to-Blood ratio (15 min post-injection): 13.99 ± 3.55 | Heart-to-Liver ratio (15 min post-injection): 1.22 ± 0.33 | Heart-to-Lungs ratio (15 min post-injection): 5.16 ± 0.69 | absolute myocardial uptake value (15 min post-injection): 1.50±0.27 % ID/g | Biodistribution: Large Intestine (15 min post-injection): 0.76 ± 0.20 % ID | Biodistribution: Small Intestine (15 min post-injection): 14.70 ± 0.78 % ID | Biodistribution: Stomach (15 min post-injection): 0.51 ± 0.05 % ID | Biodistribution: Blood (30 min post-injection): 0.09 ± 0.01 ID %/g | Biodistribution: Bone (30 min post-injection): 0.09 ± 0.01 ID %/g | Biodistribution: Brain (30 min post-injection): 0.012 ± 0.005 ID %/g | Biodistribution: Heart (30 min post-injection): 2.24 ± 0.31 ID %/g | Biodistribution: Kidney (30 min post-injection): 3.37 ± 0.38 ID %/g | Biodistribution: Liver (30 min post-injection): 1.38 ± 0.16 ID %/g | Biodistribution: Lungs (30 min post-injection): 0.27 ± 0.03 ID %/g | Biodistribution: Muscle (30 min post-injection): 0.81 ± 0.14 ID %/g | Biodistribution: Spleen (30 min post-injection): 0.16 ± 0.01 ID %/g | Heart-to-Blood ratio (30 min post-injection): 25.88±5.10 | Heart-to-Liver ratio (30 min post-injection): 1.63 ± 0.27 | absolute myocardial uptake value (30 min post-injection): 2.24±0.31 % ID/g | Biodistribution: Large Intestine (30 min post-injection): 12.06 ± 3.78 % ID | Biodistribution: Small Intestine (30 min post-injection): 25.98 ± 3.13 % ID | Biodistribution: Stomach (30 min post-injection): 0.47 ± 0.15 % ID | Biodistribution: Blood (60 min post-injection): 0.04 ± 0.01 ID %/g | Biodistribution: Bone (60 min post-injection): 0.05 ± 0.01 ID %/g | Biodistribution: Brain (60 min post-injection): 0.009 ± 0.001 ID %/g | Biodistribution: Heart (60 min post-injection): 2.45 ± 0.35 ID %/g | Biodistribution: Kidney (60 min post-injection): 1.65 ± 0.53 ID %/g | Biodistribution: Liver (60 min post-injection): 0.66 ± 0.12 ID %/g | Biodistribution: Lungs (60 min post-injection): 0.14 ± 0.02 ID %/g | Biodistribution: Muscle (60 min post-injection): 0.47 ± 0.10 ID %/g | Biodistribution: Spleen (60 min post-injection): 0.09 ± 0.02 ID %/g | Heart-to-Blood ratio (60 min post-injection): 56.19±13.56 | Heart-to-Liver ratio (60 min post-injection): 3.82±1.21 | Heart-to-Lungs ratio (60 min post-injection): 17.12±3.09 | absolute myocardial uptake value (60 min post-injection): 2.45±0.35 % ID/g | Biodistribution: Large Intestine (60 min post-injection): 16.70 ± 2.72 % ID | Biodistribution: Small Intestine (60 min post-injection): 22.54 ± 5.67 % ID | Biodistribution: Stomach (60 min post-injection): 0.19 ± 0.06 % ID | Biodistribution: Blood (120 min post-injection): 0.012 ± 0.002 ID %/g | Biodistribution: Bone (120 min post-injection): 0.04 ± 0.01 ID %/g | Biodistribution: Brain (120 min post-injection): 0.009 ± 0.002 ID %/g | Biodistribution: Heart (120 min post-injection): 1.54 ± 0.45 ID %/g | Biodistribution: Kidney (120 min post-injection): 0.65 ± 0.14 ID %/g | Biodistribution: Liver (120 min post-injection): 0.28 ± 0.01 ID %/g | Biodistribution: Lungs (120 min post-injection): 0.11 ± 0.03 ID %/g | Biodistribution: Muscle (120 min post-injection): 0.21 ± 0.05 ID %/g | Biodistribution: Spleen (120 min post-injection): 0.05 ± 0.01 ID %/g | Heart-to-Blood ratio (120 min post-injection): 118.25±44.79 | Heart-to-Liver ratio (120 min post-injection): 5.55±1.38 | Heart-to-Lungs ratio (120 min post-injection): 15.05±5.27 | absolute myocardial uptake value (120 min post-injection): 1.54 0.45 % ID/g | Biodistribution: Large Intestine (120 min post-injection): 27.61 ± 2.20 % ID | Biodistribution: Small Intestine (120 min post-injection): 5.24 ± 0.78 % ID | Biodistribution: Stomach (120 min post-injection): 0.22 ± 0.03 % ID | Biodistribution: Blood (240 min post-injection): 0.025 ± 0.003 ID %/g | Biodistribution: Bone (240 min post-injection): 0.13 ± 0.03 ID %/g | Biodistribution: Brain (240 min post-injection): 0.007 ± 0.002 ID %/g | Biodistribution: Heart (240 min post-injection): 0.60 ± 0.04 ID %/g | Biodistribution: Kidney (240 min post-injection): 0.22 ± 0.02 ID %/g | Biodistribution: Liver (240 min post-injection): 0.24 ± 0.01 ID %/g | Biodistribution: Lungs (240 min post-injection): 0.09 ± 0.01 ID %/g | Biodistribution: Muscle (240 min post-injection): 0.27 ± 0.02 ID %/g | Biodistribution: Spleen (240 min post-injection): 0.11 ± 0.01 ID %/g | Heart-to-Blood ratio (240 min post-injection): 24.36±1.72 | Heart-to-Liver ratio (240 min post-injection): 2.45 ± 0.18 | Heart-to-Lungs ratio (240 min post-injection): 6.66±0.60 | absolute myocardial uptake value (240 min post-injection): 0.60±0.04 % ID/g | Biodistribution: Large Intestine (240 min post-injection): 33.40 ± 4.10 % ID | Biodistribution: Small Intestine (240 min post-injection): 4.53 ± 0.88 % ID | Biodistribution: Stomach (240 min post-injection): 0.20 ± 0.02 % ID | absolute myocardial uptake peak value (peak at 60 min post-injection): 2.45±0.35 % ID/g
